Measurements published in publication PMC12085399, “Quantitative in vitro-to-in vivo extrapolation of human adrenergic and trace amine-associated receptor 1 potencies of pre-workout supplement ingredients using physiologically based kinetic modelling-based reverse dosimetry” (Archives of Toxicology, 2025).
“And” between values parts separate entries of the source, which are not always exact repeats. Identical values can stand only once.

Legend:
[1] = in vitro; settings: human; for Papp B→A at 60 min, 10 µM / efflux ratio at 60 min, 10 µM: Caco-2, pH 7.4; for recovery at 60 min, 10 µM: after 60 min, mean ± SD
Experimental: (§1) Caco-2 cells (ATCC, Manassas, VA, USA; passage 30–44) were cultured in DMEM (Gibco, New York, USA) containing 4.5 g/L d-glucose, 4 mM L-glutamine and supplemented with 10% FBS (Gibco, Grand Island, NY, USA), 1% minimal essential medium non-essential amino acids (Gibco, Paisley, UK), 100 units/mL penicillin and 100 µg/mL streptomycin (Gibco, Grand Island, NY, USA). Cells were seeded at a density of 4.0 × 10^4 cells/cm^2 on polyester transwell insert membranes (12 mm insert, 0.4 µm pore size; Corning incorporated, Kennebunk, ME, USA). Cells were maintained in a humidified incubator with 5% CO2 at 37 °C for 21 or 22 days in 0.5 mL and 1.5 mL medium in the apical and basolateral compartments, respectively. The medium was refreshed every two or three days and always one day before the permeability assay.
(§2) On the day of the experiment, cells were washed twice with HBSS without phenol red (pH 7.4; Sigma-Aldrich, Steinheim, Germany) supplemented with 0.35 g/L sodium bicarbonate and 25 mM HEPES and they were equilibrated in this supplemented HBSS for 15 min in a humidified incubator with 5% CO2 at 37 °C. […] These stocks were diluted to a final concentration of 10 µM in pre-warmed supplemented HBSS (final DMSO level = 0.1%). After 15 min, the transepithelial electrical resistance (TEER) was measured with an Epithelial Voltohmmeter (World Precision Instruments, Sarasota, USA). Compound transport was studied in two directions: from the apical to the basolateral compartment (A-B) and from the basolateral to the apical compartment (B-A). For A-B experiments, 450 µL of the compound (10 µM) was added to the apical side and 1200 µL supplemented HBSS was added to the basolateral side. A sample of 50 µL was removed immediately from the apical compartment at time point zero. After 15 and 30 min, samples were taken from the basolateral compartment. Cells were kept in the incubator during the experiment. After 60 min, medium from both compartments was sampled, cells were washed twice with supplemented HBSS and were maintained in the incubator. After 15 min, the TEER was measured again to check for epithelial barrier damage due to compound exposure. After this, cells were lysed in RIPA buffer (Thermo Scientific, Rockford, IL, USA). For B-A experiments, 400 µL of supplemented HBSS was added to the apical side and 1250 µL of the compound (10 µM) was added to the basolateral side. A sample of 50 µL was removed immediately from the basolateral compartment at time point zero. After 15 and 30 min, samples were taken from the apical compartment. After 60 min, samples were taken similarly as in A-B experiments. The sampled medium and cell lysates were stored at −20 °C till the day of the liquid chromatography–mass spectrometry (LC–MS/MS) analysis. All experiments were run in duplicate. The compounds were quantified with LC–MS/MS as described in Sect. "LC–MS/MS analysis".
(§3) Before chemical analysis, cell lysates were two times diluted in ice-cold methanol and centrifuged at 15,000 rpm at 4 °C. The supernatant was then injected into the LC–MS/MS system. Sampled buffer from donor compartments was diluted 40 times in buffer and samples from the receiver compartment were analysed undiluted. Standards were prepared in the same assay buffer to quantify the amount of compound in medium samples. For quantification of compounds in cell lysates, standards were prepared in a mixture of 50% RIPA buffer and 50% methanol.
(§4) All data are presented as mean ± SD.
(§5) For the < Tsi > a value of 3.32 h was used (Grandoni et al. [2019]).

[2] = test system: Caco-2 cells; assay: in vitro; settings: for fa (fraction absorbed) / ka (absorption rate constant): scaled from corrected Caco-2 Papp A-B, human; for metabolic breakdown by Caco-2 cells: Caco-2 transport studies, 10 µM
Experimental: as §1, §2, §3, §4, §5

[3] = test system: ADRα1A; assay: PBK modelling-based reverse dosimetry of in vitro EC50 to ED50, ADRα1A; settings: predicted human oral ED50 from in vitro EC50 (Pinckaers et al. [2024]) and modelled Cmax plasma venous
Source text: (§6) The in vitro effect concentrations (EC50), for activation of the α1A, α1B, α1D, α2A, α2B, β1 and β2 ADR activation and the activation of TAAR1, were obtained from our previous study (Pinckaers et al. [2024]).

[4] = test system: ADRα1B; assay: PBK modelling-based reverse dosimetry of in vitro EC50 to ED50, ADRα1B; settings: predicted human oral ED50 from in vitro EC50 (Pinckaers et al. [2024]) and modelled Cmax plasma venous
Source text: as §6

[5] = test system: ADRα2A; assay: PBK modelling-based reverse dosimetry of in vitro EC50 to ED50, ADRα2A; settings: predicted human oral ED50 from in vitro EC50 (Pinckaers et al. [2024]) and modelled Cmax plasma venous
Source text: as §6

[6] = test system: TAAR1; assay: PBK modelling-based reverse dosimetry of in vitro EC50 to ED50, TAAR1; parameters: species or system human; settings: for TAAR1 ED50: predicted human oral ED50 from in vitro EC50 (Pinckaers et al. [2024]) and modelled Cmax plasma venous; for dose needed to reach internal effect concentrations, times lower than the dose of higenamine: TAAR1, Fig. 6F
Source text: as §6

[7] = Caco-2, pH 7.4, Papp A-B corrected, corrected for the difference between Papp A-B of metoprolol in this study and in literature
[8] = Caco-2, pH 7.4, Papp A-B, Caco-2, apical to basolateral, 10 µM, HBSS pH 7.4, mean ± SD, duplicate
[9] = Caco-2, pH 7.4, Recovery (A-B), Caco-2, A-B experiments
[10] = Caco-2, pH 7.4, Recovery (B-A), Caco-2, B-A experiments

Row | SMILES | Papp B→A at 60 min, 10 µM [1] [×10⁻⁶ cm/s] | efflux ratio at 60 min, 10 µM [1] | Papp A→B at 60 min, 10 µM [1, 7] [×10⁻⁶ cm/s] | Papp A→B at 60 min, 10 µM [1, 8] [×10⁻⁶ cm/s] | recovery at 60 min, 10 µM [1, 9] [%] | recovery at 60 min, 10 µM [1, 10] [%] | fa (fraction absorbed) [2] | ka (absorption rate constant) [2] [h⁻¹] | ADRα1A ED50 [3] | ADRα1B ED50 [4] | ADRα2A ED50 [5] | TAAR1 ED50 [6] | dose needed to reach internal effect concentrations, times lower than the dose of higenamine [6] [times] | metabolic breakdown by Caco-2 cells [2]
1 | CN(C)CCc1ccccc1 [Dimethylphenethylamine, N,N-dimethylphenethylamine] | 13.1 ± 0.51 | 0.891 | 53.5 | 14.7 ± 0.244 | 76.7 ± 0.06 | 93.3 ± 4.81 | 1.00 | 3.66 | – (compounds with a dash (-) did not activate the receptors in vitro at concentrations ≤ 300 µM) | 4.07 mg/kg bw | – (compounds with a dash (-) did not activate the receptors in vitro at concentrations ≤ 300 µM) | 14.0 mg/kg bw |  | 
2 | CNCC(O)c1ccccc1 (centres unmarked) [Halostachine, halostachine] | 10.3 ± 0.649 | 0.786 | 47.8 | 13.1 ± 0.144 | 84 ± 3.18 | 93.9 ± 0.0289 | 1.00 | 3.46 | 10.5 mg/kg bw | 1.32 mg/kg bw | – (compounds with a dash (-) did not activate the receptors in vitro at concentrations ≤ 300 µM) | 88.9 mg/kg bw |  | 
3 | Oc1ccc(CC2NCCc3cc(O)c(O)cc32)cc1 (centres unmarked) [Higenamine, higenamine] | 0.0612 ± 0.00186 | 1 | 0.223 | 0.061 ± 0.0351 | 104 ± 0.35 | 105 ± 1.06 | 0.860 | 0.246 | – (compounds with a dash (-) did not activate the receptors in vitro at concentrations ≤ 300 µM) | – (compounds with a dash (-) did not activate the receptors in vitro at concentrations ≤ 300 µM) | – (compounds with a dash (-) did not activate the receptors in vitro at concentrations ≤ 300 µM) | 6.09 mg/kg bw |  | 
4 | CN(C)CCc1ccc(O)cc1 [Hordenine, hordenine] | 11.2 ± 0.22 | 0.862 | 47.3 | 13 ± 0.192 | 96.7 ± 1.27 | 107 ± 0.0262 | 1.00 | 3.46 | – (compounds with a dash (-) did not activate the receptors in vitro at concentrations ≤ 300 µM) | 1.90 mg/kg bw | 234 mg/kg bw | 15.9 mg/kg bw |  | 
5 | CC(C)NCC(O)c1ccc(O)cc1 (centres unmarked) [Isopropyloctopamine, isopropyloctopamine] | 0.652 ± 0.0444 |  | 2.56 | 0.703 ± 0.041 | 79.8 ± 2.19 | 76.5 ± 1.27 | 0.994 | 0.818 | – (compounds with a dash (-) did not activate the receptors in vitro at concentrations ≤ 300 µM) | – (compounds with a dash (-) did not activate the receptors in vitro at concentrations ≤ 300 µM) | – (compounds with a dash (-) did not activate the receptors in vitro at concentrations ≤ 300 µM) | 1.26 mg/kg bw | 4.8 | 
6 | CNC(C)C(O)c1ccc(O)cc1 (centres unmarked) [Methylsynephrine] | 0.39 ± 0.202 | 1.1 | 1.3 | 0.353 ± 0.215 | 114 ± 8.39 | 102 ± 11.7 | 0.971 | 0.563 | 29.7 mg/kg bw | – (compounds with a dash (-) did not activate the receptors in vitro at concentrations ≤ 300 µM) | – (compounds with a dash (-) did not activate the receptors in vitro at concentrations ≤ 300 µM) | – (compounds with a dash (-) did not activate the receptors in vitro at concentrations ≤ 300 µM) |  | 
7 | NCCc1ccccc1 [Phenethylamine, phenethylamine] | 1.95 ± 1.04 | 0.677 | 10.5 | 2.88 ± 0.22 | 15.7 ± 1.51 | 103 ± 3.36 | 1.00 | 1.64 | – (compounds with a dash (-) did not activate the receptors in vitro at concentrations ≤ 300 µM) | – (compounds with a dash (-) did not activate the receptors in vitro at concentrations ≤ 300 µM) | – (compounds with a dash (-) did not activate the receptors in vitro at concentrations ≤ 300 µM) | 67.7 mg/kg bw |  | metabolized by Caco-2 cells
8 | NCCc1ccc(O)cc1 [Tyramine, tyramine] | 1.13 ± 0.67 |  | 8.7 | 2.38 ± 1.19 | 114 ± 11.2 | 84 ± 6.25 | 1.00 | 1.50 | – (compounds with a dash (-) did not activate the receptors in vitro at concentrations ≤ 300 µM) | – (compounds with a dash (-) did not activate the receptors in vitro at concentrations ≤ 300 µM) | – (compounds with a dash (-) did not activate the receptors in vitro at concentrations ≤ 300 µM) | 34.7 mg/kg bw |  | not observed
9 | CNCC(O)c1ccc(O)cc1 (centres unmarked) [p-Synephrine, Synephrine] | 0.22 ± 0.0453 |  | 3.47 | 0.951 ± 0.497 | 109 ± 1.48 | 100 ± 4.89 | 0.997 | 0.951 | 3.32 mg/kg bw | 0.914 mg/kg bw | 139 mg/kg bw | 127 mg/kg bw |  | not observed
10 | CC(CN)c1ccccc1 (stereo not drawn) [β-Methylphenethylamine, β-methylphenethylamine] | 12.1 ± 2.02 | 0.766 | 57.6 | 15.8 ± 1.47 | 80.9 ± 3.27 | 89.3 ± 4.46 | 1.00 | 3.79 | – (compounds with a dash (-) did not activate the receptors in vitro at concentrations ≤ 300 µM) | – (compounds with a dash (-) did not activate the receptors in vitro at concentrations ≤ 300 µM) | – (compounds with a dash (-) did not activate the receptors in vitro at concentrations ≤ 300 µM) | 0.995 mg/kg bw and 0.955 mg/kg bw | 6.4 | 
